Results as given in patent US11203015B2, “Microfluidic device” (TECHNISCHE UNIVERSITAT WIEN, priority 2016, dated 2021).

Test system: human umbilical vain endothelial cells (HUVECs)
Assay: microfluidic wound healing assay (membrane deflection, cell depletion)
Format: cell-based
Experimental: Lentivirally transduced GFP HUVEC (human umbilical vain endothelial cells) were obtained from Olaf pharmaceuticals (USA) and cultivated in gelatin coated 25 cm^2 cell culture flasks and maintained in EGM-2 (Lonza, CC3156) supplemented with EGM-2 SingleQuots (Lonza, CC4176). The coating was performed using 1% gelatin solution (9000-70-8, Sigma Aldrich) in DPBS and was incubated for 30 min at 37° C. For on chip experiments the medium was supplemented with 1% hepes buffer (J848, AMRESCO). For the coating experiment 500 mM NaOH was inserted to the microfluidic channels, incubated for 15 min at RT, following rinsing with PBS and a protein mixture comprising 10 μg/m fibronectin (Sigma Aldrich, F4759) and […] fibrinogen conjugated with Alexa Fluor 488 (Thermo Fisher, F13191) was incubated for 1 h at 37° C.
The microfluidic device of example 1 was placed on a heating plate equipped with a temperature controller. The temperature of the plate was adjusted to reach 37° C. on top of the microdevice. For the on-chip wound healing assays the microchip was first sterilized using 70% ethanol, rinsed using a 1 M NaOH solution for 15 min and washed with PBS prior coating using a 1% gelatin solution for 1 h. Cell suspension of desired concentration was prepared and inserted into microchannels using plastic syringe (1 ml). Cells were allowed to adhere for 1 h in the absence of fluid flow followed by a constant medium perfusion of 4 μl/min using syringe pump. As soon as the cells were grown confluent (typically 1 to 2 days) cells were mechanically damaged (“squeezed”) by the PDMS membrane, which bended under force towards the cell layer. Bending was induced by manual increase of pressure load to 150 kPa (differential pressure) followed by immediate release to 0 kPa using a pressure controller. To further remove residual cell debris from the substrate multiple membrane deflections (minimum of three times) were performed. During the mechanical damaging the medium perfusion was always kept on.
The fluorescence pictures were transformed to grey scale, the contrast increased and the leading edge of the wound selected using the Magic wand tool. This image was then processed using Image) by determining the cell-free area with the tool Analyze Particles.
Next the ability to create defined and reproducible cell depletion zones within a confluent cell monolayer was evaluated using the membrane deflection method. In a series of experiments endothelial cells were seeded and cultivated in a microfluidic channel for a minimum period of 6 hours prior cell removal. During the entire wound healing assay including the cell depletion procedure the applied flow rate of 3 μl/min was kept constant to ensure complete removal of cell debris following membrane compression. In addition to maintaining an intact coating, a further aspect that may also influence cell migration is associated with the release of biochemical factors from viable but injured cells at the edge of the wounding area. To investigate whether cells located in the adjacent vicinity of the cell-free area are injured by membrane compression, dead staining using ethidium homodimer-1 was conducted in subsequent experiments. Results indicated the presence of red fluorescently labelled DNA debris present in the cell-free area following 1 h after wound induction. More importantly, none of the leading edge cells appeared damaged by the membrane compression, since only DNA from lysed cells inside the wound remained on the substrate. […]

[1] = 10 μg/ml Mitomycin-C, one hour exposure, flow rate 3 μl/min, after 6 h

Compound | wound closure observed after (10 μg/ml Mitomycin-C, one hour exposure) [h] | cell-free area, times larger compared to TNF-α treated cells [1] | cell-free area, times larger compared to control experiments [1] | cell density within the wounded area (10 μg/ml Mitomycin-C, after 24 h, compared to control) | remaining cell-free area, factor larger than control experiments (1 ng/ml TNF-α in medium immediately after wound induction and maintained, 6 h post wounding)
CO[C@@]12[C@H](COC(N)=O)C3=C(C(=O)C(C)=C(N)C3=O)N1C[C@@H]1N[C@@H]12 [Mitomycin-C] | 24 | 1.5 | 5 | visibly reduced | –
TNF-α | – | – | – | – | 3.3
